Assay results as given in publication PMC8156604, “Development of Phosphodiesterase–Protein-Kinase Complexes as Novel Targets for Discovery of Inhibitors with Enhanced Specificity” (International Journal of Molecular Sciences, 2021).

Tests used:
[1] = biological target: T1, RegA–RD complex (Dictyostelium discoideum, UniProt P05987+Q23917); details: cGMP 250 µM added to preformed 2fc-RD–RegA complex
T1 construct: gene pkaR
T1 sequence (P05987 1-327): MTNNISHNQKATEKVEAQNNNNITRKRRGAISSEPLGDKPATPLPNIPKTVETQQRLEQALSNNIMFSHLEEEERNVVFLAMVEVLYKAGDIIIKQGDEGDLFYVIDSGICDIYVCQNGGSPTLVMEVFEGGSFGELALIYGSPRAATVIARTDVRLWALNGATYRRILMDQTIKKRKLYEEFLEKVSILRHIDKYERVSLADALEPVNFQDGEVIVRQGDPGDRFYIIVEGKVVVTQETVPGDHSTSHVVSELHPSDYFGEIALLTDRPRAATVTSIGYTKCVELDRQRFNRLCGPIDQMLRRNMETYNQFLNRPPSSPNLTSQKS
T1 sequence (Q23917 1-793): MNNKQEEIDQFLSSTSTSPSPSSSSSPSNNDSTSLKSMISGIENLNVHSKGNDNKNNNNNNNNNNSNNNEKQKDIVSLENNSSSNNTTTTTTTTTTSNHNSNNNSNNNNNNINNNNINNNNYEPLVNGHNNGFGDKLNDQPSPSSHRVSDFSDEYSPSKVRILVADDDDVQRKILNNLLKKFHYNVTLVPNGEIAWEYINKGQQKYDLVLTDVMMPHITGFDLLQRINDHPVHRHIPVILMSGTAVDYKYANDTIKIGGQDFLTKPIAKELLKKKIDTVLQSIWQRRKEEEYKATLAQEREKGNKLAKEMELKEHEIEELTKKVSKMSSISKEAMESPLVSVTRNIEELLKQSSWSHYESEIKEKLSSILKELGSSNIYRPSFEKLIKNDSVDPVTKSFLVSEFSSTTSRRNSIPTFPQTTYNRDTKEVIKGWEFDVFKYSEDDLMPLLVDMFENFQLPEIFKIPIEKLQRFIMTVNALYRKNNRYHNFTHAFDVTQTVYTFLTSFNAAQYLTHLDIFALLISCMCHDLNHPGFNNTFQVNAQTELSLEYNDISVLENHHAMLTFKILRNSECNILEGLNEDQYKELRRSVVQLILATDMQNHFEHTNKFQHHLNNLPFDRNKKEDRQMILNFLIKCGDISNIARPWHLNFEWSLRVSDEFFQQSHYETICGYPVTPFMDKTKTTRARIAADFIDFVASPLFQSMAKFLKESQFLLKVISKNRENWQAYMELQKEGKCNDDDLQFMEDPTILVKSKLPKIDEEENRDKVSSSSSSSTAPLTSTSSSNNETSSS

[2] = biological target: T2, PDE5–PKG complex (Homo sapiens, UniProt O76074); details: PDE5 with cGMP 100 µM, added to 2fg-PKG
T2 construct: gene PDE5A

Nc1nc2c(ncn2[C@@H]2O[C@@H]3COP(=O)(O)O[C@H]3[C@H]2O)c(=O)[nH]1 [cGMP]
fluorescence polarization, displacement of 2fluo-cAMP [1]: addition of cGMP (lilac plot) resulted in only a partial decrease in FP | fluorescence polarization, 2fluo-cGMP-bound PKG probe [2]: suggestive of processive hydrolysis of cGMP by PDE5–PKG composite site
